The source of these data is patent publication US20200199530A1, “METHODS OF DIFFERENTIATING STEM CELL-DERIVED ECTODERMAL LINEAGE PRECURSORS” (MEMORIAL SLOAN-KETTERING CANCER CENTER, priority 2017, published 2020).

One series deals with hPSCs. Kind of series: Tolerability of small molecules during E6-based differentiation. Format: cell-based, human. Conditions: had to be re-titrated.
Series [1] deals with SIX1 placode cells (PAX3 expression). In words: Trigeminal placode induction by CHIR99021 pulse. The series is classed as cell-based, human. Conditions: additional pulse after the placode-inducing BMP pulse. On the procedure: (§1) All differentiations starting from E8 were dissociated into single cells using EDTA and re-plated at high density in E8 with the ROCK inhibitor (Tocris). Cells were typically seeded at a density of 200,000 cells/cm^2 on Matrigel coated dishes. Switching from E8 to E6 triggered differentiations (i.e. d0). Neuroectoderm (NE) formation was generated by culturing the cells in E6 with 10 μM SB and 500 nM LDN until d12. Neural Crest (NC) was first treated with 10 μM SB, 600 nM CHIR and 1 ng/ml BMP4 from d0-d2. At d3, cells were maintained in 10 μM SB with 1.5 uM CHIR until d12. Lens placode was first treated with 10 μM SB and 5 ng/ml BMP4 from d0-d2. At d3, cells were maintained in 10 μM SB with 50 ng/ml FGF2 until d12. Trigeminal placode was first treated with 10 μM SB and 5 ng/ml BMP4 from d0-d2. At d2, 600 nm CHIR was added. At d3, cells were treated with 10 μM SB and 600 nM CHIR. From d4-d12, cells were treated with 10 μM SB. Finally, non-neural ectoderm (NNE) was treated with 10 μM SB, 10 μM SU5402 and 10 ng/ml BMP4 from d0-d1, and then treated with 10 μM SB and 5 ng/ml BMP4 from d2-d12.
Trigeminal Placode differentiation. Day 0 (0-24 hrs): Add E6 media containing 5 ng/ml BMP4+10 μM SB to cells.
Day 1 (24-48 hrs): Change media with E6 media containing 5 ng/ml BMP4+10 μM SB to cells.
Day 2 (48-72 hrs): Change media with E6 media containing 5 ng/ml BMP4+10 μM SB+600 nM CHIR to cells. […]

In the next series the test system is rodent GSK3β homologs. The note with it: cited from earlier work.
Series [2] concerns hPSC differentiated towards pituitary placode. Kind of series: Pituitary placode induction from hPSC. The series is classed as cell-based, human. The note with it: 1 μM, with FGF8 and FGF10, day 15. On the procedure:
For pituitary differentiation cells were plated at 250 000 cells/cm^2 on VTN-N coated dishes (differentiation works best in 24 well plates) in E8+10 μM Y-27632. After 24 h (day0) medium was changed to E6 supplemented with 10 μM SB431542 and 5 ng/ml BMP4 (R&D Systems). Medium was changed every day. On day 3 BMP4 was removed from the medium and cells were cultured for 1 day in E6+10 μM SB431542. For the standard differentiation conditions, on day 4 E6 was supplemented with 10 μM SB431542, 200 ng/ml SHH (R&D Systems, C25II), 100 ng/ml FGF8b (R&D Systems) and 50 ng/ml FGF10 (Peprotech Inc.). For some experiments SHH was replaced by 1 μM purmorphamine (Stemgent) or 1 μM SAG (Stemcell Technologies). From now on medium volume was doubled and cells were feed every other day until day 15. […] Purified cells were then plated as droplets (50 000 cells/10 μl drop) in E6 supplemented with 10 μM Y-27632, 200 ng/ml SHH, 100 ng/ml FGF8b and 50 ng/ml FGF10 on polyornithine/laminin/fibronectin-coated plates. After 24 h medium was changed to E6 containing SHH, FGF8 and FGF10 until day 30. Medium was changed every other day. […] For quantitative RT PCR the present example used the SSoFast EvaGreen Mix (BioRad) in combination with QuantiTect primer assays (Qiagen) on a BioRad CFX96 Thermal Cycler. […] Results are calculated using the ΔΔCt method (Livak and Schmittgen, 2001).

In series [3] the test system is human pluripotent stem cells (PAX6::H2B-GFP reporter). In words: Neuroectoderm induction in E6 media, PAX6 positive cells. Format: cell-based. Conditions: day 12 post induction, no small molecules ~40%. The method, then:
as §1
Neuroectoderm differentiation. Day 0 (0-24 hrs): Add E6 media containing 500 nM LDN+10 μM SB to cells. To skew the differentiation more toward an anterior neuroectoderm, add E6 media containing 500 nM LDN+10 μM SB+5 μM XAV to cells. […]

On to `Cc1c[nH]c(-c2cnc(NCCNc3ccc(C#N)cn3)nc2-c2ccc(Cl)cc2Cl)n1` [CHIR99021, 6-(2-(4-(2,4-dichlorophenyl)-5-(4-methyl-1H-imidazol-2-yl)pyrimidin-2-ylamino)ethylamino)nicotinonitrile], for which, in the series on hPSCs, the “cell killing at the original (KSR protocol) concentration” value is “effectively killed the cells”. The “PAX3 expression in placode cells” value in series [1] was “capable of triggering PAX3+ and PAX6− expression”. The “IC50 values against rodent GSK3β homologs” value with rodent GSK3β homologs was “nanomolar”.
Regarding `CNC1CCC(N(Cc2cccc(-c3ccncc3)c2)C(=O)c2sc3ccccc3c2Cl)CC1` (stereo not drawn) [SAG], in series [2], the “replacement of recombinant SHH in pituitary induction” value is recorded as “can be replaced”.
As for `NC(=O)c1ccc(-c2nc(-c3ccc4c(c3)OCO4)c(-c3ccccn3)[nH]2)cc1` [SB431542, 4-[4-(1,3-benzodioxol-5-yl)-5-(2-pyridinyl)-1H-imidazol-2-yl]-benzamide], in series [3], the “percentage of cells expressing PAX6” value is listed as approximately 90%.
As to `c1ccc2c(Oc3nc(Nc4ccc(N5CCOCC5)cc4)c4ncn(C5CCCCC5)c4n3)cccc2c1` [purmorphamine], the “replacement of recombinant SHH in pituitary induction” value in series [2] is on record as “can be replaced”.
